These results are taken from paper PMC11876601 (Molecular Systems Biology, 2025).

The EC50 is the concentration at which the effect is half-maximal.

Each structure is given as a SMILES string.

The target in one assay is T1, ACVR1 (Homo sapiens, UniProt Q04771).
T1 construct: endogenous in cells; host or cells: AsPC-1 lysate
The assay can be described thus: Kinobeads competition pulldown in AsPC-1 lysate. It is filed as binding. The procedure: (§1) This was followed by incubation with Kinobeads ε (17.5 µl of settled beads) for 30 min at 4 °C to enrich kinases. […] Enriched proteins were reduced with 50 mM DTT in 8 M urea, 40 mM Tris-HCl, pH 7.4 for 30 min at room temperature, and alkylated with 55 mM chloroacetamide. After reducing the urea concentration to 1–2 M, proteins were digested with trypsin at 37 °C for 16 h. Subsequently, eluted peptides were desalted using SepPak tC18 µElution plates (Waters), freeze-dried by vacuum centrifugation, and stored at −20 °C.
(§2) For LC-MS/MS, dried peptides were reconstituted in 0.1% formic acid and analyzed on a Dionex Ultimate3000 nano HPLC (Thermo Scientific) coupled to an Orbitrap Fusion Tribrid mass spectrometer (Thermo Scientific), which was run in data-dependent mode. Peptides were first delivered to a trap column (100 µm × 2 cm, packed in-house with Reprosil-Gold C18 ODS-3 5 µm resin, Dr. Maisch, Ammerbuch) and subsequently washed with solvent A0 (0.1% formic acid in HPLC grade water) at 5 µl/min for 10 min. […] For MS2, up to 12 peptide precursors were isolated (isolation width of 1.2 Th) and subjected to HCD fragmentation using 30% normalized collision energy. […] The duration of dynamic exclusion was set to 30 s.
(§3) Oxidized methionine and N-terminal acetylation were set as variable modification, and cysteine carbamidomethylation was set as fixed modification. Label-free quantification (LFQ) and match-between-runs were enabled. All searches were performed with 1% PSM and protein FDR.
(§4) Proteins were filtered by potential contaminants, reversed hits and proteins identified only by site. Residual binding of proteins was calculated from LFQ intensities as the ratio between drug doses and vehicle. […] Only kinases quantified with at least 4 unique peptides in the vehicle experiment were considered. Potential targets were further curated through manual inspection of dose-dependent reduction in MS/MS and unique peptide counts.

In a further assay the target is T2, ACVR2 (Homo sapiens).
T2 construct: endogenous in cells; host or cells: AsPC-1 lysate
The assay can be described thus: Kinobeads competition pulldown in AsPC-1 lysate. The format is binding. Particulars: read-out: KDapp. The procedure:
as §1, §2, §3, §4

In another assay the target is T3, BMP2K (Homo sapiens, UniProt Q9NSY1).
T3 construct: endogenous in cells; host or cells: AsPC-1 lysate
The assay can be described thus: Kinobeads competition pulldown in AsPC-1 lysate. The format is binding. The procedure: as §1, §2, §3, §4

Another assay deals with T4, CSNK2A2 (Homo sapiens, UniProt P19784).
T4 construct: endogenous in cells; host or cells: AsPC-1 lysate
The assay can be described thus: Kinobeads competition pulldown in AsPC-1 lysate. It is filed as binding. The procedure: as §1, §2, §3, §4

A further assay concerns RPS6KA6. Also on record: method as in Reinecke et al. (2023). Particulars: RPS6KA6, 5 cell line mix lysate, Kinobeads ε, ref Reinecke et al. (2023), cited from earlier work.
The target in a further assay is TTK. On the set-up: method as in Reinecke et al. (2023). Particulars: 5 cell line mix lysate, Kinobeads ε, ref Reinecke et al. (2023), cited from earlier work.
In another assay the test system is PDO UME061. The experiment in a line: PDO viability assay (CellTiter-Glo, 72 h). It is filed as cell-based. Particulars: Homo sapiens. The procedure: Primary patient-derived PDAC organoid (PDO) experiments were performed in the laboratories of Prof. Maximilian Reichert (University Hospital of the TU Munich, Germany, PDO set 1: B250, B535, B678) and Prof. Jens T. Siveke (University Hospital Essen, Germany; PDO set 2: UME008, UME012, UME051, UME053, UME060, UME061). PDOs were generated from surgical resection, EUS-guided fine needle biopsy (EUS-FNB), or ascites (Appendix Table S2). Surgical specimens were first minced with a sterile scalpel and subsequently washed with Anti-Anti solution and washing medium (PDO set 1), or vice versa (PDO set 2; Appendix Table S3). Biopsy samples were directly washed with an Anti-Anti solution and washing medium. Samples were digested using 1 ml of digestion medium at 37 °C while shaking, and the enzymatic reaction was stopped by adding 15 ml of washing medium (Appendix Table S3). […]
For viability assays in PDOs, confluent organoids were removed from medium, and Matrigel was dissolved by adding 200 μl (PDO set 1) or 2 ml (PDO set 2) of Cell Recovery Solution (Corning), and additionally 500 μl of DPBS (PDO set 1 only). […] After 72 h, cell viability was measured using the CellTiter-Glo Luminescent Cell Viability Assay (Promega) diluted 1:5 in the final volume of the well. […]
On the technique in general: In ATP-based viability assays light output follows the ATP content of the culture.

The next assay deals with CAMKK2. On the set-up: method as in Klaeger et al. (2017). Particulars: lysate 4 cell line mix (Colo205, K-562, MV-4-11, and SK-N-BE(2)), Kinobeads y, ref Klaeger et al. (2017); cited from earlier work.
The next assay concerns the target T5, GSKA (Homo sapiens, UniProt P49840).
T5 construct: endogenous in cells; host or cells: AsPC-1 lysate
The experiment in a line: Kinobeads competition pulldown in AsPC-1 lysate. The format is binding. Particulars: read-out: KDapp. The procedure:
as §1, §2, §3, §4

For a further assay, the target named is T6, GSKB (Homo sapiens, UniProt P49841).
T6 construct: endogenous in cells; host or cells: AsPC-1 lysate
The experiment in a line: Kinobeads competition pulldown in AsPC-1 lysate. Particulars: read-out: KDapp. The format is binding. The procedure:
as §1, §2, §3, §4

Where [1] appears, read: Kinobeads residual binding curve.

With `CNCc1ccc(-c2cc(-c3nc(-c4ccc(S(=O)(=O)C(C)C)cc4)cnc3N)on2)cc1` [Berzosertib], the Kd at ACVR1 (AsPC-1 lysate, read-out: KDapp) is 0.83 nM; at ACVR2 (Homo sapiens) it was less than 1 nM; on BMP2K (AsPC-1 lysate, read-out: KDapp), 19.9 nM; at CSNK2A2 (AsPC-1 lysate, read-out: KDapp) it was 219 nM. For the same molecule, the EC50 on ACVR1 (setting [1]) was determined as 2.11 nM; on BMP2K (setting [1]) it was 35.7 nM; on CSNK2A2 (setting [1]) it was 406 nM.
As for `COc1cc(N2CCC(N3CCN(C)CC3)CC2)ccc1Nc1ncc(Cl)c(Nc2ccccc2P(C)(C)=O)n1` [Brigatinib], the EC50 with RPS6KA6 is 93.6 nM; in the assay with TTK, 629 nM. Moreover, the pKDapp is on record as 7.40 at RPS6KA6 and 6.20 at TTK. In addition, the figures for the Kd on RPS6KA6 (read-out: KDapp) and at TTK (read-out: KDapp) were 39.5 nM and 629 nM, respectively.
In the case of `Nc1ccn([C@@H]2O[C@H](CO)[C@@H](O)C2(F)F)c(=O)n1` [GEM, Gemcitabine], the EC50 in the assay on PDO UME061 (GEM alone) was 5.8 nM; in the assay on PDO UME061 (experiment GEM (GEM alone), mean of replicates), 5.78 nM.
With `C[C@]12O[C@H](C[C@]1(O)CO)n1c3ccccc3c3c4c(c5c6ccccc6n2c5c31)CNC4=O` [Lestaurtinib], the EC50 in the assay with CAMKK2 is […].
`Nc1nn2cc(F)cnc2c1C(=O)Nc1cncc(F)c1N1CCC(C(=O)N2CCN(C3COC3)CC2)CC1` [Gartisertib]: the Kd at GSKA and on GSKB was less than 10 nM in each case.
